Molecules are shown by their SMILES.

In one data set the test system is C2C12. Description: Cytotoxicity against mouse C2C12 cells assessed as effect o cell viability at 1 to 100 uM incubated for 4 hrs by trypan blue reagent based phase contrast microscopic analysis. To be noted: c2c12, 4 h, dose 1-100 µM. The class given is toxicity.
Data set [1] concerns the target T1, NAD-dependent protein lipoamidase sirtuin-4, mitochondrial (Homo sapiens, UniProt Q9Y6E7).
T1 sequence (Q9Y6E7 whole entry): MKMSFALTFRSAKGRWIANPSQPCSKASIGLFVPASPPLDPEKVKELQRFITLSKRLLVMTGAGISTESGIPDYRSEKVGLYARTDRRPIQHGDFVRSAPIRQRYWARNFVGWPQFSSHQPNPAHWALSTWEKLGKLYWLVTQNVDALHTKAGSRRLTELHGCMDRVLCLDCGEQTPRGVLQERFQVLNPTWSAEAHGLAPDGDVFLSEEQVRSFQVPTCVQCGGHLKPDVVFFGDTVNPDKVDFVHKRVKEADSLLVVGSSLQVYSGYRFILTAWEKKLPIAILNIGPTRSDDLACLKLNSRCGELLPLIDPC
Description: Inhibition of N-terminal 6His-tagged human Sirt4 (25 to 314 residues) expressed in Escherichia coli CodonPlus(DE3) cells using HMG-FdL as substrate at 100 uM preincubated for 20 mins followed by NAM addition and measured after 45 mins in presence of NAD+ by fluorescence based assay relative to control.

As for `CCCc1cc(=O)[nH]c(SCC(=O)Nc2ccc(S(=O)(=O)c3ccc([N+](=O)[O-])cc3)cc2)n1`, the Activity result in the data set with C2C12 is on record as “Non-Toxic”.
As a reminder, the IC50 is the concentration needed to halve the response being measured. On to `NC(=O)C1=CN([C@@H]2O[C@H](COP(=O)(O)OP(=O)(O)OC[C@H]3O[C@@H](n4cnc5c(N)ncnc54)[C@H](O)[C@@H]3O)[C@@H](O)[C@H]2O)C=CC1`, for which, in data set [1], the IC50 is roughly 126 µM.

For the origin of these results see ChEMBL document CHEMBL5537192, “Specific Inhibitors of Mitochondrial Deacylase Sirtuin 4 Endowed with Cellular Activity” (J Med Chem, 2024).
